Assay results from publication PMC8213057, “Targeting ALK2: An Open Science Approach to Developing Therapeutics for the Treatment of Diffuse Intrinsic Pontine Glioma” (Journal of Medicinal Chemistry, 2020).

Assays:
JAK2 = JAK2 (Homo sapiens, UniProt O60674); details: 1 μM; Run 1, Run 2
RIPK2 = RIPK2 (Homo sapiens, UniProt O43353); test: biochemical; details: read-out: % enzyme activity, 1 μM; Run 1, Run 2
BMPR2 = biological target: T1, BMPR2 (Homo sapiens, UniProt Q13873); test: 375-member kinase panel; format: biochemical; details: Run 1, Run 2; for % enzyme activity: 1 μM; for remaining activity at 1 µM: read-out: % enzyme activity, 1 μM
T1 construct: purchased Reaction Biology Corporation
T1 sequence (Q13873 27-1038): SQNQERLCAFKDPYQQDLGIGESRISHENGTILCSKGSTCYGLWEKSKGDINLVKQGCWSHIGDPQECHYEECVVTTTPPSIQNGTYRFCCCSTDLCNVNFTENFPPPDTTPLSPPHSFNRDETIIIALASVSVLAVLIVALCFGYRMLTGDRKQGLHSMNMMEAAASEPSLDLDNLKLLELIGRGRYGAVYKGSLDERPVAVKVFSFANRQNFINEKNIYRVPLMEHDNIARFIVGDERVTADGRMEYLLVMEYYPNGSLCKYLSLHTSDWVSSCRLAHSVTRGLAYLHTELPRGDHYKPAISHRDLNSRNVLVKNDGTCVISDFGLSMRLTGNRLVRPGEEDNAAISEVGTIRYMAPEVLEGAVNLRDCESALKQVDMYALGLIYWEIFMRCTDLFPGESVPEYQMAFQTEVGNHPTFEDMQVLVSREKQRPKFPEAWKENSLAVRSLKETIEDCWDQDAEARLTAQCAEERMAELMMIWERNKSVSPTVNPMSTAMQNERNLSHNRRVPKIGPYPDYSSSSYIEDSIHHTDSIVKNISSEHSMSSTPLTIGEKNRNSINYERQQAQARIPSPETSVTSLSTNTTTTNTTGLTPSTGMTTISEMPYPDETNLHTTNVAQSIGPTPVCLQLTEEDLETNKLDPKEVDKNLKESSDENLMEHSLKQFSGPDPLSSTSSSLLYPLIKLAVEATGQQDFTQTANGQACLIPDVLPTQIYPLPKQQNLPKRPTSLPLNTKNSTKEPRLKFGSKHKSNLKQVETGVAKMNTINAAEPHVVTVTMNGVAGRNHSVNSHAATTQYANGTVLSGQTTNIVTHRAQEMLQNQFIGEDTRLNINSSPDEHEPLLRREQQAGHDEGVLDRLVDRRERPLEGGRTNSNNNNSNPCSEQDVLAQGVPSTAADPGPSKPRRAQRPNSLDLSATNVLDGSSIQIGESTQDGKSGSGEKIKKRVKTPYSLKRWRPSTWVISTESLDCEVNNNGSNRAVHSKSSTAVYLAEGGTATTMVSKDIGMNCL

ROCK2 = ROCK2 (Homo sapiens, UniProt O75116); test: biochemical; details: read-out: % enzyme activity, 1 μM; Run 1, Run 2
MLCK2/MYLK2 = MLCK2/MYLK2 (Homo sapiens, UniProt Q9H1R3); test: biochemical; details: read-out: % enzyme activity, 1 μM; Run 1, Run 2
c-MER = biological target: T2, c-MER (Homo sapiens, UniProt Q12866); details: 1 μM; Run 1, Run 2
T2 sequence (Q12866 21-999): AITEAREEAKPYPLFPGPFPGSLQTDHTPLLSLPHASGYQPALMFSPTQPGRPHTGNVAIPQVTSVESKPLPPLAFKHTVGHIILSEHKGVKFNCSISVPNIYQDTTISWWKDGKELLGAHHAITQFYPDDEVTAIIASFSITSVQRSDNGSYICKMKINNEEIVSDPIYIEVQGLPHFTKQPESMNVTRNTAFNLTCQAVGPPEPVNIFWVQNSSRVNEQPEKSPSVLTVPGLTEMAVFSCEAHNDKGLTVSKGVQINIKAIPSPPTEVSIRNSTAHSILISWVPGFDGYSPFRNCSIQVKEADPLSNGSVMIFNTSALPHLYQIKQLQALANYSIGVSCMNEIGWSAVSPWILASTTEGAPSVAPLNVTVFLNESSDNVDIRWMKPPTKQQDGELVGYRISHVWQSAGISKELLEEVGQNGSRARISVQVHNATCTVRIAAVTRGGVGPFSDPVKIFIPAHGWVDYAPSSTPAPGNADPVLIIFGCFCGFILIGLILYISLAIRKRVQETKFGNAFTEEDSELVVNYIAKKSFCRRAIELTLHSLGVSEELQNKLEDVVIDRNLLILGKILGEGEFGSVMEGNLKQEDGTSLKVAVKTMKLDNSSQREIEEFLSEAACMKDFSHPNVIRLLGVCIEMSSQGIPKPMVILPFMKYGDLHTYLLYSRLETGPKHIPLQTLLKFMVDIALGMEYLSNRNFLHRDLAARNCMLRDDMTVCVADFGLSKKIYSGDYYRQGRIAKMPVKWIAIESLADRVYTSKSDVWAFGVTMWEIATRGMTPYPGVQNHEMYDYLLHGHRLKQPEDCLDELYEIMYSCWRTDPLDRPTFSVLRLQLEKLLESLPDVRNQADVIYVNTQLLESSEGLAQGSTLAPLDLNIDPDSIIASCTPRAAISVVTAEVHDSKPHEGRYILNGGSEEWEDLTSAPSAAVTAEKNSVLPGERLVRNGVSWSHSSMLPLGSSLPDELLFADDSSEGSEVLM

MNK2 = MNK2 (Homo sapiens, UniProt Q9HBH9); test: biochemical; details: read-out: % enzyme activity, 1 μM; Run 1, Run 2
STK25/YSK1 = STK25/YSK1 (Homo sapiens, UniProt O00506); details: 1 μM; Run 1, Run 2
Sequence of STK25/YSK1 (O00506 whole entry): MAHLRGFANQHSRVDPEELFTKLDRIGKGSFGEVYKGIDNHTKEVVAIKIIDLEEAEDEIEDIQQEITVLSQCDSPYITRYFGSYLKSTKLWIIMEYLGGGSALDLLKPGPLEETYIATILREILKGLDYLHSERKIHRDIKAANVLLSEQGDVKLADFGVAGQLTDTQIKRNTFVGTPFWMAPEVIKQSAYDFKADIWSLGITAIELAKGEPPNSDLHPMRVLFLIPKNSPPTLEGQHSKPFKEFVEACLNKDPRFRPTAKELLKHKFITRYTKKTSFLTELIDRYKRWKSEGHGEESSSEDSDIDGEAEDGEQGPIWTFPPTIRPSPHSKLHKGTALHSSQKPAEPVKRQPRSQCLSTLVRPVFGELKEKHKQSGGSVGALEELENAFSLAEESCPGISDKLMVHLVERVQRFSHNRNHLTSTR

Sequence of RIPK2 (O43353 whole entry): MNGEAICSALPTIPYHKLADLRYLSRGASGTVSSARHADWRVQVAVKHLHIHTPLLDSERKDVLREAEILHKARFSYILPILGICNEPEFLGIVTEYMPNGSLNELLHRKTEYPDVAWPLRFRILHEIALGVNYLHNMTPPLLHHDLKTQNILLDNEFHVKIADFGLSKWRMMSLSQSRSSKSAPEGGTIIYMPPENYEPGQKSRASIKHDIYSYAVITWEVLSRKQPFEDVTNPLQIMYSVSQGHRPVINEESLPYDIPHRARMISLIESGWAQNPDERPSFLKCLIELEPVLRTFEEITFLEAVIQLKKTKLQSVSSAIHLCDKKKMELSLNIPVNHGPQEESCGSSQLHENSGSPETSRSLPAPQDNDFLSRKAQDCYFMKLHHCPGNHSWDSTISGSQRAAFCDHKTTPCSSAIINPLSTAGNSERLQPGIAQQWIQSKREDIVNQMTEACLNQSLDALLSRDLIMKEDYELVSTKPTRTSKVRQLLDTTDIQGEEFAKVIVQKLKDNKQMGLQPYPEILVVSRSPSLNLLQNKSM
Sequence of MLCK2/MYLK2 (Q9H1R3 whole entry): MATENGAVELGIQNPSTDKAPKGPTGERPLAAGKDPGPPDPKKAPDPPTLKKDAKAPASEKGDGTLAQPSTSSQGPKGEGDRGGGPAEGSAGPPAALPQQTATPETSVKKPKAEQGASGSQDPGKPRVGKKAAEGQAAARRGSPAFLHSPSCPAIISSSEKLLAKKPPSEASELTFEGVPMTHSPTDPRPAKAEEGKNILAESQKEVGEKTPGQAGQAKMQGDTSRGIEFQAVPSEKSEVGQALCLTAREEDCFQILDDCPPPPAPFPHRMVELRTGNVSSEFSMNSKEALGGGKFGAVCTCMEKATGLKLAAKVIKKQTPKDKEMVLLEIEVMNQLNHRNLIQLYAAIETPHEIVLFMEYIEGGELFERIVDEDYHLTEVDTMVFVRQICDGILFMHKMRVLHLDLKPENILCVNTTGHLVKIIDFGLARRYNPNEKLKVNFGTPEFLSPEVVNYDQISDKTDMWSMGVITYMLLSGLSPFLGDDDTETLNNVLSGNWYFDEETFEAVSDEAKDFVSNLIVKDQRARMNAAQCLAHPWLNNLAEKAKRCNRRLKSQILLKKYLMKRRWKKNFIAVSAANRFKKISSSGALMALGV
Sequence of JAK2 (O60674 whole entry): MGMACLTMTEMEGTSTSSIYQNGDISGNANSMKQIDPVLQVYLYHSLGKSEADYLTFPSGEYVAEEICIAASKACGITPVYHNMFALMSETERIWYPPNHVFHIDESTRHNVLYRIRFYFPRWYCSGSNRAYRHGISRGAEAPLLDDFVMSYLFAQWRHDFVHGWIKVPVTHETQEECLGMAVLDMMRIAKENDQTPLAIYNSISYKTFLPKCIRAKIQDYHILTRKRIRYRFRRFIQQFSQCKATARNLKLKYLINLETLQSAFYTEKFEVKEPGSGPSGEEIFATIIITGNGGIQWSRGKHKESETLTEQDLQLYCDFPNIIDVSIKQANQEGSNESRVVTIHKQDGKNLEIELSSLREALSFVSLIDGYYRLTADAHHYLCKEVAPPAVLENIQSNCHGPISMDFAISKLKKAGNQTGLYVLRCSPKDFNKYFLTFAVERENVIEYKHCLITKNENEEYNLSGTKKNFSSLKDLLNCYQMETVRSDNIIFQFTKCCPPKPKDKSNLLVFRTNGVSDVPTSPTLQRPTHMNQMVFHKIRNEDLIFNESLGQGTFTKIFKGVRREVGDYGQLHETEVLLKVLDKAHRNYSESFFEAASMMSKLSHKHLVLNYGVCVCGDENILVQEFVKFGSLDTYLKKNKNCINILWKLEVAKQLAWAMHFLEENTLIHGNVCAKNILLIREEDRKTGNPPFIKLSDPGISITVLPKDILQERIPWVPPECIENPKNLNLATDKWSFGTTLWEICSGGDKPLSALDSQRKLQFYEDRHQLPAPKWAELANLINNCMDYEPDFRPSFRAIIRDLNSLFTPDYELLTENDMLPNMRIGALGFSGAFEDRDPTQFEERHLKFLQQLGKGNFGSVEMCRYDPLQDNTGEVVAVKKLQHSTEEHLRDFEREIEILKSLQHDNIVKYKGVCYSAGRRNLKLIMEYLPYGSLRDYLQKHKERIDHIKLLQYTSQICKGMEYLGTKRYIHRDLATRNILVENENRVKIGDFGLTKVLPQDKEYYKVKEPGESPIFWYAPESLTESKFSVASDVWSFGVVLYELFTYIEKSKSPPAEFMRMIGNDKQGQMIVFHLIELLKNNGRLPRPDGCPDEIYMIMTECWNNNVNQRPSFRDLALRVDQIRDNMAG
Sequence of ROCK2 (O75116 whole entry): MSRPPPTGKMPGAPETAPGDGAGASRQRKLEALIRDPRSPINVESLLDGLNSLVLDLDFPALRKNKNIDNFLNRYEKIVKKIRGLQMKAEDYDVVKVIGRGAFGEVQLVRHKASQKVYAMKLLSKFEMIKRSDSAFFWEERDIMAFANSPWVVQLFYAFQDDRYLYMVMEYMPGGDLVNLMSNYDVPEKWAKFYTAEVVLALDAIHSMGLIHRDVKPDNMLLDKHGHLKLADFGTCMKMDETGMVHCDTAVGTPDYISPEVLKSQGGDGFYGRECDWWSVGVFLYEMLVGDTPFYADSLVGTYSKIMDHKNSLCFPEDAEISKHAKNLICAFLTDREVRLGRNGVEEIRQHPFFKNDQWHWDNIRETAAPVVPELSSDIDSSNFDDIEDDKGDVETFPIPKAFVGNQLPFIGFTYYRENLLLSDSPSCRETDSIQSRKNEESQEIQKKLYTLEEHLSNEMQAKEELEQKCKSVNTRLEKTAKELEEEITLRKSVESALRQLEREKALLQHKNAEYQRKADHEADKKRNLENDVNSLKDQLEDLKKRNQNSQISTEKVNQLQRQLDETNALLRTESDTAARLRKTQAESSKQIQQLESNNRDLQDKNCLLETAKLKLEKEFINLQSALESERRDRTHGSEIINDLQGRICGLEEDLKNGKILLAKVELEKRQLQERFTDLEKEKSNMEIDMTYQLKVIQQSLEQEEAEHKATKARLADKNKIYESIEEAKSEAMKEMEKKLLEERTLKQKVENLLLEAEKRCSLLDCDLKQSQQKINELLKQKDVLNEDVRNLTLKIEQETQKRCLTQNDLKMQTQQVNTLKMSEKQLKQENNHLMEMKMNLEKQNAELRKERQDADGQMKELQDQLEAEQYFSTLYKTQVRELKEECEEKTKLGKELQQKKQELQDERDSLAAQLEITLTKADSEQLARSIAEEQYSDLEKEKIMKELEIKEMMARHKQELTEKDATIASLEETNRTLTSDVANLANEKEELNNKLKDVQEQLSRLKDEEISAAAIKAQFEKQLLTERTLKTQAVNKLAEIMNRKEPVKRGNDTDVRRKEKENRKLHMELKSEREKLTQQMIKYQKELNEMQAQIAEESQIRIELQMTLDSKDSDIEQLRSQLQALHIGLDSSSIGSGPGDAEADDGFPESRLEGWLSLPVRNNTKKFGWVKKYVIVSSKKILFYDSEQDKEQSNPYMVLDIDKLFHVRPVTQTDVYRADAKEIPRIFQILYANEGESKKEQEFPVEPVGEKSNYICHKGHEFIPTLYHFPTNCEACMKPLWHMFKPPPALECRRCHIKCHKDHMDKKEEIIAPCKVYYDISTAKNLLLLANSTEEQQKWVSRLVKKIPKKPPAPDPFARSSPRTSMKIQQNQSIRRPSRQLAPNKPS
Sequence of MNK2 (Q9HBH9 whole entry): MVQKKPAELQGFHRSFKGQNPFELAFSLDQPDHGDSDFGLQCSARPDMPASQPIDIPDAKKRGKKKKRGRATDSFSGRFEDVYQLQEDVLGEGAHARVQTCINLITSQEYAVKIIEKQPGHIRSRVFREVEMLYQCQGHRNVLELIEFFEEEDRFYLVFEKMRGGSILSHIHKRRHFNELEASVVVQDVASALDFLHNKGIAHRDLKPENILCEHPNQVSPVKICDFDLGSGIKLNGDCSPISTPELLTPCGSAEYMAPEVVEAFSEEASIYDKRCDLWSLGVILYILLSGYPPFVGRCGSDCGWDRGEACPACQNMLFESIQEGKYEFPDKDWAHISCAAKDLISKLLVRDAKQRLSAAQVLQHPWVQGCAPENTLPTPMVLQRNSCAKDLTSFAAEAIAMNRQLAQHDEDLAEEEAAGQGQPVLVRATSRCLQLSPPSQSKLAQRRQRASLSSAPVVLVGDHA

SMILES | % enzyme activity (JAK2) [%] | remaining activity at 1 µM (RIPK2) [%] | % enzyme activity (BMPR2) [%] | remaining activity at 1 µM (BMPR2) [%] | remaining activity at 1 µM (ROCK2) [%] | remaining activity at 1 µM (MLCK2/MYLK2) [%] | % enzyme activity (c-MER) [%] | remaining activity at 1 µM (MNK2) [%] | % enzyme activity (STK25/YSK1) [%]
COc1cc(-c2cncc(-c3ccc(N4C[C@@H](C)N(C)[C@@H](C)C4)cc3)c2C)cc(F)c1C(N)=O [Compound 26c, 2-Fluoro-6-methoxy-4-(4-methyl-5-(4-((3R,5S)-3,4,5-trimethylpiperazin-1-yl)phenyl)pyridin-3-yl)benzamide] | 88.17 | 89.7 | 100.11 | 104 | 101 | 84.8 | 96.34 | 70.8 | 94.06
COc1cc(-c2cncc(-c3ccc(N4CCN(C)CC4)cc3)c2C)cc(F)c1C(N)=O [Compound 26a, 2-Fluoro-6-methoxy-4-(4-methyl-5-(4-(4-methylpiperazin-1-yl)phenyl)pyridin-3-yl)benzamide] | 92.09 | 71.1 | 88.40 | 89.1 | 116 | 66.8 | 99.93 | 48.2 | 94.98
